In patent US7985767B2, “Therapeutic amides” (Allergan, Inc., priority 2006, dated 2011):

Key:
[1] = biological target: EP2 (Homo sapiens, UniProt P43116); test: EP2 binding (Ki)
Source text: (§1) U.S. patent application Ser. No. 11/553,143, filed on Oct. 26, 2006, incorporated by reference herein, describes the methods used to obtain the in vitro data in the table below.

[2] = biological target: T1, hDP (Homo sapiens, UniProt Q13258); test: Other receptors functional EC50, hDP; type: cell-based
T1 sequence (Q13258 1-359): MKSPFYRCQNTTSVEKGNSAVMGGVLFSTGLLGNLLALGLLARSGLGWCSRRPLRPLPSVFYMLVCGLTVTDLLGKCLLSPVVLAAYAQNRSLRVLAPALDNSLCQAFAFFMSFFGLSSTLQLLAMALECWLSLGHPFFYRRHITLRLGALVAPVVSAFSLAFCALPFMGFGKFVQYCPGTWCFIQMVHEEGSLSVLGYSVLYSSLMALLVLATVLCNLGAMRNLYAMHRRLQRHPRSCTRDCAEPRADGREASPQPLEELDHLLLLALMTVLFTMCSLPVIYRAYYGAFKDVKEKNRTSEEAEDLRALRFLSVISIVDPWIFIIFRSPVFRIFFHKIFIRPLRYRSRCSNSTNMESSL
Source text: as §1

[3] = biological target: T2, hTP (Homo sapiens, UniProt P21731); test: Other receptors functional EC50, hTP; type: cell-based
T2 sequence (P21731 1-343): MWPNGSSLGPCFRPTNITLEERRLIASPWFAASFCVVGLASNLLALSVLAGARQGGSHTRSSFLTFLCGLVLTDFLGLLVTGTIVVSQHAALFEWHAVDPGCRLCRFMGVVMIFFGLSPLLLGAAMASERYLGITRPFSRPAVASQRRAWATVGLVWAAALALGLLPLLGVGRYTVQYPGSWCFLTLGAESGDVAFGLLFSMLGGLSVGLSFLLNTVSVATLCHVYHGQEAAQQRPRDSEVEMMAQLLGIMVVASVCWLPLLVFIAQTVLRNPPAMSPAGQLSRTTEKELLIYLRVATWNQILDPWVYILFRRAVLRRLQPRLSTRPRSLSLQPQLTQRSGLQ
Source text: as §1

Sequence of EP2 (P43116 whole entry): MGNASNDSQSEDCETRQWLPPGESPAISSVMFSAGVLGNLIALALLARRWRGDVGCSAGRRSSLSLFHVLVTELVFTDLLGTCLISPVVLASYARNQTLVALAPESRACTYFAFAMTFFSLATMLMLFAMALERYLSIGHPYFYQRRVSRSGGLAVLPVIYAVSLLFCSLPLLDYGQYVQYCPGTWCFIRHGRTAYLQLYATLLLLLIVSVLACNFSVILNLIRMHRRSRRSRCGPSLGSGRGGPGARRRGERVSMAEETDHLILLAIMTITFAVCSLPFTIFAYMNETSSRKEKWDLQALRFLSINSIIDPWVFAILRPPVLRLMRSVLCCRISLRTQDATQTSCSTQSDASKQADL

Ki [1] [µM] | EC50 [2] [µM] | EC50 [3] [µM] | Structure (SMILES)
> 10 | 4.76 |  | CCCCCC(O)c1ccc(N(CCCc2ccc(C(=O)O)s2)C(C)=O)cc1 (stereo not drawn) [5-(-3-(N-(4-(1-hydroxyhexyl)phenyl)acetamido)propyl)thiophene-2-carboxylic acid]
 |  | 8.53 | CCCCCC(O)c1ccc(N(CC#CCCCC(=O)O)C(C)=O)cc1 (stereo not drawn) [7-(N-(4-(1-hydroxyhexyl)phenyl)acetamido)hept-5-ynoic acid]
